This experiment has as its target Histone-lysine N-methyltransferase EZH2 (Homo sapiens, UniProt Q15910). The experiment can be described thus: Inhibition of EZH2 Y641F mutant in PRC2 complex (unknown origin) using RKQLATKAARK(Me3)SAPATGGVKKP-NH2 peptide substrate preincubated for 30 mins followed by addition of [3H]-SAM measured after 2 hrs by Topcount scintillation proximity assay.
For the compound `COc1cc(C)[nH]c(=O)c1CNC(=O)c1c(C)n([C@H](C)C2CCNCC2)c2ccccc12`, half-maximal inhibition (IC50) was put at 3.9 nM.

`COc1cc(C)[nH]c(=O)c1CNC(=O)c1c(C)n([C@H](C)C2CCN(C)CC2)c2ccccc12` showed an IC50 of 1.7 nM.

Turning to `COc1cc(C)[nH]c(=O)c1CNC(=O)c1c(C)n([C@H](C)C2CCN(C(=O)C(C)C)CC2)c2ccccc12`, the IC50 came out at 16 nM. Compared with the last compound, the IC50 is about 9.4-fold higher.

With `COc1cc(C)[nH]c(=O)c1CNC(=O)c1c(C)n([C@H](C)C2CCN(C(=O)OC(C)C)CC2)c2ccccc12`, the midpoint of inhibition, the IC50, lay at 4.1 nM.

As for `COc1cc(C)[nH]c(=O)c1CNC(=O)c1c(C)n([C@H](C)C2CCN(C(=O)N(C)C)CC2)c2ccccc12`, the IC50 was 8.9 nM.

The compound `COc1cc(C)[nH]c(=O)c1CNC(=O)c1c(C)n([C@H](C)C2CCN(C3COC3)CC2)c2ccccc12` displayed an IC50 of 1.7 nM.

For the compound `CCOC(=O)CN1CCC([C@@H](C)n2c(C)c(C(=O)NCc3c(OC)cc(C)[nH]c3=O)c3ccccc32)CC1`, the half-maximal inhibitory concentration (IC50) worked out at 2.5 nM.

`COc1cc(C)[nH]c(=O)c1CNC(=O)c1c(C)n([C@H](C)C2CCN(CCC(F)(F)F)CC2)c2ccccc12`: 4.8 nM corresponded to half-maximal inhibition (IC50).

`COc1cc(C)[nH]c(=O)c1CNC(=O)c1c(C)n([C@H](C)C2CCN(CC(F)(F)C(F)F)CC2)c2ccccc12` returned an IC50 of 3.3 nM.

`COc1cc(C)[nH]c(=O)c1CNC(=O)c1c(C)n([C@H](C)C2CCN(CC(F)F)CC2)c2ccccc12`: 3.8 nM corresponded to half-maximal inhibition (IC50).

Source of the values: BindingDB's records for doi:10.1021/acs.jmedchem.6b01315 (Constellation Pharmaceuticals, 2016).
